Source: paper PMC4535766, “Antiprotozoal Activity Profiling of Approved Drugs: A Starting Point toward Drug Repositioning” (PLoS ONE, 2015)
Read-outs that look alike come from different tables or passages of the source.

Legend:
[1] = system: T. b. rhodesiense strain STIB 900, trypomastigotes; experiment: In vitro activity against T. b. rhodesiense, serial drug dilution assay; details: for IC50: Trypanosoma brucei; for Activity against T. b. rhodesiense (in words): in vitro
Experimental: (§1) Drug stock solutions (10mg/ml) were in DMSO (100%). […] Selectivity index (SI) was calculated as IC50 L6 cells/IC50 parasite.

[2] = system: intracellular amastigotes of L. donovani strain MHOM-ET-67/L82; experiment: Activity against Leishmania donovani intracellular amastigotes in mouse peritoneal macrophages; details: Leishmania donovani, Peritoneal macrophage, in Mus musculus
Experimental: After 24 h 1.2 x 10^5 amastigote L. donovani in 100 μl were added. The amastigotes were taken from an axenic culture grown at pH 5.4. Four hours later, the medium containing free amastigote forms was removed and replaced by fresh medium. The next day the medium was replaced by medium with or without a serial drug dilution of seven 3-fold dilution steps covering a range from 30 to 0.04 μg/ml. Parasite growth in the presence of the drug was compared to control wells. After 96 h of incubation, the medium was removed and the slides fixed with methanol for 10 min followed by staining with a 10% Giemsa solution. Infected and non-infected macrophages were counted for the control cultures and those exposed to the serial drug dilutions. The infection rates were determined. The results were expressed as a percentage reduction in parasite burden compared to control wells, and the IC50 was calculated by linear regression analysis. The collection of mouse peritoneal macrophages was done at the Swiss Tropical and Public Health Institute (Basel) according to the rules and regulations for the protection of animal rights ("Tierschutzverordnung") of the Swiss "Bundesamt für Veterinärwesen".

[3] = system: axenic amastigotes of L. donovani, strain MHOM-ET-67/L82; experiment: In vitro activity against L. donovani axenic amastigotes, serial drug dilution assay; format: cell-based, Leishmania donovani; details: Leishmania donovani
Experimental: as §1

in vitro = details: rat
Experimental: as §1

[4] = system: T. cruzi, strain Tulahuen C4, intracellular amastigotes; experiment: microbe, parasite or virus in culture; details: Trypanosoma cruzi, TULAHUEN
Experimental: as §1

P. falciparum strain K1 = experiment: In vitro activity against P. falciparum, serial drug dilution assay; details: for IC50: Plasmodium falciparum; for Activity against P. falciparum (in words): in vitro
Experimental: as §1

[5] = Cytotoxicity on macrophages infected with L. donovani; format: cell-based, mouse; details: mouse
[6] = 96 h, read-out: IC50 L. don. intracell
[7] = axenic amastigotes, strain MHOM-ET-67/L82, means of two independent assays, read-out: IC50 L. don. axen.
[8] = mouse peritoneal macrophages infected with L. donovani, macrophages infected with L. donovani, read-out: IC50 Cytotox. mac.inf.
[9] = L6 cells, IC50 Cytotox. L6, L6 cells, means of two independent assays
[10] = macrophages infected with L. donovani, read-out: IC50 Cytotox. mac.inf.
[11] = read-out: L. don. intracell IC50
[12] = L. donovani axenic amastigotes, read-out: L. don. axen. IC50
[13] = infected macrophages, read-out: Cytotox. mac.inf. IC50

Row | SMILES | IC50 ([1]; read-out: IC50 T. b. rhod.) [µM] | IC50 [2, 6] [µM] | IC50 [3, 7] [µM] | IC50 (in vitro; IC50 Cytotox. L6) [µM] | IC50 ([4]; read-out: IC50 T. cruzi) [µM] | IC50 (P. falciparum strain K1; K1, read-out: IC50 P. falc. K1) [µM] | IC50 at 96 h [5, 10] [µM] | further results
1 | CCC(C)n1ncn(-c2ccc(N3CCN(c4ccc(OCC5COC(Cn6cncn6)(c6ccc(Cl)cc6Cl)O5)cc4)CC3)cc2)c1=O (stereo not drawn) [Itraconazole] | 8.53 | > 1.42 | 2.42 | 1.11 | 0.004 | 1.37 |  | 
2 | Nc1nc(N)nc(Nc2ccc([As]3SCC(CO)S3)cc2)n1 (stereo not drawn) [Melarsoprol] | 0.01 |  |  |  |  |  |  | 
3 | CC(N)C12CC3CC(CC(C3)C1)C2 (stereo not drawn) [Rimantadine] | 13.8 | > 167 | 427 |  | 321 | 0.97 |  | selectivity ratio ([1]; rat, L6 cells versus T. b. rhodesiense STIB 900 trypomastigotes): 23; IC50 at 96 h [5, 8]: > 167 µM; IC50 (in vitro; [9]): 311 µM; Activity against P. falciparum (in words) (P. falciparum strain K1): selective activities; selectivity ratio (P. falciparum strain K1; rat, Selectivity index: IC50 Cytotoxicity L6/ IC50 P. falciparum): 321
4 | C[C@@H](c1ncncc1F)[C@](O)(Cn1cncn1)c1ccc(F)cc1F [Voriconazole] | > 286 | > 85.9 | > 286 | 195 | 11.2 | > 143 | > 85.9 | 
5 | CC(=O)[C@H]1CC[C@H]2[C@@H]3CC[C@H]4C[C@](C)(O)CC[C@]4(C)[C@H]3CC[C@]12C [Ganaxolone] |  |  |  |  |  |  |  | IC50 ([1]; read-out: T. b. rhod. IC50): 5.47 µM; IC50 [2, 11]: > 90.2 µM; IC50 [3, 12]: 42.5 µM; IC50 at 96 h [5, 13]: > 90.2 µM; IC50 (in vitro): 23.5 µM; IC50 ([4]; read-out: T. cruzi IC50): 65 µM; IC50 (P. falciparum strain K1; K1, read-out: P. falc. IC50): > 15 µM
6 | CC[C@H]1OC(=O)[C@H](C)[C@@H](O[C@H]2C[C@@](C)(OC)[C@@H](O)[C@H](C)O2)[C@H](C)[C@@H](O[C@@H]2O[C@H](C)C[C@H](N(C)C)[C@H]2O)[C@](C)(O)C[C@@H](C)C(=O)[C@H](C)[C@@H](O)[C@]1(C)O [Erythromycine (Hydrate), Erythromycine] | 72.1 | > 39.9 | > 133 | 92.2 | 114 | 9.91 | > 39.9 | 
7 | NC(=O)c1cnccn1 [Pyrazinamide] | > 812 | > 244 | > 812 | 458 | 565 | 179 | > 244 | 
8 | CO[C@H]1/C=C/O[C@@]2(C)Oc3c(C)c(O)c4c(c3C2=O)C2=NC3(CCN(CC(C)C)CC3)NC2=C(NC(=O)/C(C)=C\C=C\[C@H](C)[C@H](O)[C@@H](C)[C@@H](O)[C@@H](C)[C@H](OC(C)=O)[C@@H]1C)C4=O [Rifabutin] |  |  |  |  |  |  |  | IC50 ([1]; read-out: T. b. rhod. IC50): 12.6 µM; Activity against T. b. rhodesiense (in words) [1]: devoid of antitrypanosomal activity; IC50 [2, 11]: > 35.4 µM; IC50 [3, 12]: 56.4 µM; IC50 at 96 h [5, 13]: > 35.4 µM; IC50 (in vitro; Cytotox. L6 IC50): 60.9 µM; IC50 ([4]; read-out: T. cruzi IC50): 27.5 µM; IC50 (P. falciparum strain K1; K1, read-out: P. falc. IC50): 1.59 µM
9 | NC(=O)c1cccnc1 [Nicotinamide] | > 737 | > 246 | > 737 | > 737 | > 737 | > 40.9 | > 246 | 
10 | O=C(O)c1cn(C2CC2)c2cc(N3CCNCC3)c(F)cc2c1=O [Ciprofloxacin] |  |  |  |  |  |  |  | IC50 ([1]; read-out: T. b. rhod. IC50): 35.9 µM; IC50 [2, 11]: > 90.5 µM; IC50 [3, 12]: > 302 µM; IC50 at 96 h [5, 13]: > 90.5 µM; IC50 (in vitro; Cytotox. L6 IC50): 118 µM; IC50 ([4]; read-out: T. cruzi IC50): 92 µM; IC50 (P. falciparum strain K1; K1, read-out: P. falc. IC50): 13.2 µM
11 | Nc1nc2c(ncn2CCC(CO)CO)c(=O)[nH]1 [Penciclovir] | > 395 | > 118 | > 395 | 220 | 254 | 169 | > 118 | 
12 | OCCN1CCN(CCCN2c3ccccc3Sc3ccc(C(F)(F)F)cc32)CC1 [Fluphenazine] |  |  |  | 11.5 |  |  | 22.9 | Activity against P. falciparum (in words) (P. falciparum strain K1): micromolar range
13 | O=C(Cn1ccnc1[N+](=O)[O-])NCc1ccccc1 [Benznidazole] |  |  |  |  | 1.99 |  |  | 
14 | CCS(=O)(=O)CCn1c([N+](=O)[O-])cnc1C [Tinidazole] | 16.6 | > 81 | > 81 | > 243 | > 81 |  | > 81 | Activity against T. b. rhodesiense (in words) [1]: inactive
15 | CC(C)c1nc(CN(C)C(=O)N[C@H](C(=O)N[C@@H](Cc2ccccc2)C[C@H](O)[C@H](Cc2ccccc2)NC(=O)OCc2cncs2)C(C)C)cs1 [Ritonavir] | 4.3 | > 41.6 | 8.97 |  | 20.7 | 16.2 |  | 
16 | Cn1c([N+](=O)[O-])cnc1N1CCN(S(C)(=O)=O)C1=O [Satranidazole] | 18.7 | > 104 | 10.4 |  | 19.1 |  |  | IC50 at 96 h [5, 8]: > 104 µM; IC50 (in vitro; [9]): > 311 µM
17 | CC(C)CN(C[C@@H](O)[C@H](Cc1ccccc1)NC(=O)O[C@H]1CO[C@H]2OCC[C@H]21)S(=O)(=O)c1ccc(N)cc1 [Darunavir] | 31.4 | > 54.8 | 125 |  | 92.2 | 46.9 |  | 
18 | CCCSc1ccc2nc(NC(=O)OC)[nH]c2c1 [Albendazole] | 14.7 | > 3.77 | > 113 |  | 12.3 |  |  | IC50 (in vitro): 0.41 µM
19 | CSc1ccc2c(c1)N(CCC1CCCCN1C)c1ccccc1S2 (stereo not drawn) [Thioridazine] |  |  |  | 5.39 |  |  |  | MCC at 96 h [5, 13]: 25.8 µM
20 | CCCCCCCCCCCCCCCCOP(=O)([O-])OCC[N+](C)(C)C [Miltefosine] |  | 1.21 |  |  |  |  |  | 
21 | Cc1ncc([N+](=O)[O-])n1CC(O)CCl (stereo not drawn) [Ornidazole] | 25.9 | > 136 | > 136 | > 408 | 130 |  | > 136 | 
22 | CCN(CC)CCOc1ccc(C(=C(Cl)c2ccccc2)c2ccccc2)cc1 [Clomiphene] |  |  |  |  |  |  |  | MCC at 96 h [5, 13]: 24.6 µM; IC50 (in vitro; Cytotox. L6 IC50): 13.1 µM
23 | CN(C)CCCN1c2ccccc2CCc2ccc(Cl)cc21 [Clomipramine] |  |  |  | 19.8 |  |  | 31.8 | 
24 | CNCCC(Oc1ccc(C(F)(F)F)cc1)c1ccccc1 (stereo not drawn) [Fluoxetine] |  |  |  | 15 |  |  |  | MCC at 96 h [5, 10]: 32.3 µM; Activity against P. falciparum (in words) (P. falciparum strain K1): micromolar range
25 | CC(=O)N1CCN(c2ccc(OCC3COC(Cn4ccnc4)(c4ccc(Cl)cc4Cl)O3)cc2)CC1 (stereo not drawn) [Ketoconazole] | 33.1 | > 18.8 | 38.8 |  | 0.27 |  |  | IC50 (in vitro): 51 µM
26 | Cc1ncc([N+](=O)[O-])n1CC(C)O (stereo not drawn) [Secnidazole] | 28.7 | > 161 | > 161 | > 483 | > 161 |  | > 161 | 
27 | Clc1ccc2c(c1)C(N1CCNCC1)=Nc1ccccc1O2 [Amoxapine] |  |  |  | 16.2 |  |  | 31.9 | 
